Here are results for 10 molecules from ChEMBL document CHEMBL1201862, “PubChem BioAssay data set” (2004).

Test systems include SK-MEL-2; SNB-19; SF-539; MCF7; UACC-257; K562; NCI-H460; PC-3; SW-620; U-251; Malme-3M; UO-31; OVCAR-5; COLO 205; NCI-H226; HL-60; SN12C; SF-295; HCT-116; NCI-H522.
Common to all, as to assay: NCI tumour cell line growth inhibition, 48 h

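Method: 48-hour compound exposure of cells in 96-well plates, five concentrations, linear interpolation of endpoints. GI50 = concentration required for 50% inhibition of growth.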 Activity calls are given as the source filed them. No stated cut-off is given here; in the data, active = GI50 up to about 1.1 µM and inactive = higher. A value given as a limit tells only on which side of the number the result lay.

Regarding `O=C1c2ccccc2-c2nc3ccncc3n21`, the GI50 with SK-MEL-2, with SNB-19, with SF-539, in the test with MCF7, in the test on UACC-257 and in the test on K562 was > 100 µM (inactive) in each case. Further, the GI50 in the test on NCI-H460, in the test with PC-3, in the test on SW-620, with U-251, with Malme-3M and with UO-31 was > 100 µM (inactive) each time. Further, the GI50 in the test on OVCAR-5, with COLO 205, in the test on NCI-H226, with HL-60, in the test on SN12C and in the test on SF-295 was > 100 µM (inactive) in each case. Also, the GI50 in the test with HCT-116 is 30.5 µM (inactive); in the test on NCI-H522 it was > 100 µM (inactive).

As for `NS(=O)(=O)c1cc(C(=O)O)c(O)c2ccccc12`, the GI50 in the test with SK-MEL-2, in the test with SNB-19, with SF-539, with MCF7, in the test with UACC-257 and in the test with K562 was > 100 µM (inactive) in each case. The GI50 in the test on NCI-H460 is > 100 µM (inactive); in the test on PC-3 it was > 100 µM (inactive); with SW-620, > 100 µM (inactive); in the test with U-251 it was > 100 µM (inactive); in the test with Malme-3M it was 92 µM (inactive); with UO-31 it was > 100 µM (inactive). For the same molecule, the GI50 in the test on OVCAR-5, in the test on COLO 205, in the test with NCI-H226, in the test on HL-60, with SN12C and in the test on SF-295 was > 100 µM (inactive) in each case. Also, the GI50 in the test on HCT-116 and in the test on NCI-H522 was > 100 µM (inactive) throughout.

As for `CCc1nc2cc(/N=N/c3c(O)ccc4ccccc34)ccc2[nH]1`, the GI50 in the test with SK-MEL-2 was 19.8 µM (inactive); in the test on SNB-19 it was 31.3 µM (inactive); with SF-539, 18.1 µM (inactive); in the test with MCF7 it was 18.4 µM (inactive); with UACC-257 it was 14.5 µM (inactive); with K562, 8.59 µM (inactive). Also, the GI50 in the test with NCI-H460 is 16.1 µM (inactive); in the test with PC-3, 14.6 µM (inactive); with SW-620, 22.5 µM (inactive); with U-251 it was 16 µM (inactive); with Malme-3M, 18.3 µM (inactive); in the test on UO-31 it was 18.8 µM (inactive). Further, the GI50 with OVCAR-5 was 17.5 µM (inactive); in the test with COLO 205 it was 21.2 µM (inactive); in the test with NCI-H226, 22.3 µM (inactive); with HL-60, 2.4 µM (inactive); in the test on SN12C, 20.5 µM (inactive); in the test on SF-295, 20.8 µM (inactive). In addition, the figures for the GI50 with HCT-116 and with NCI-H522 were 15.5 µM (inactive) and 18.1 µM (inactive), respectively.

For `COc1cccc(C2c3cc4c(cc3OC(Nc3ccccc3)C2C)OCO4)c1OC` (centres undefined), the GI50 in the test with SK-MEL-2 was 4.55 µM (inactive); in the test with SNB-19, > 100 µM (inactive); in the test with SF-539, 13.2 µM (inactive); in the test on MCF7, 6.89 µM (inactive); with UACC-257, 35.6 µM (inactive); with K562 it was 2.64 µM (inactive). Moreover, the GI50 was 3.43 µM (inactive) in the test with NCI-H460; 4.47 µM (inactive) in the test on PC-3; 7.85 µM (inactive) in the test with SW-620; 5.94 µM (inactive) in the test on U-251; 6.31 µM (inactive) in the test with Malme-3M; 4.19 µM (inactive) with UO-31. Besides, the GI50 in the test with OVCAR-5 was 44.5 µM (inactive); in the test on COLO 205 it was 4.98 µM (inactive); in the test with NCI-H226, 1.84 µM (inactive); in the test with HL-60, 2.1 µM (inactive); in the test on SN12C it was 6.4 µM (inactive); with SF-295, 5.55 µM (inactive). The GI50 with HCT-116 is 3.52 µM (inactive); with NCI-H522, 3.36 µM (inactive).

In the case of `Cc1nc(-c2cc3ccccc3oc2=O)cs1`, the GI50 in the test with SK-MEL-2 is 85.3 µM (inactive); with SNB-19, 40.6 µM (inactive); in the test on SF-539, 70 µM (inactive); in the test with MCF7, > 100 µM (inactive); in the test on UACC-257, > 100 µM (inactive); in the test with K562, > 100 µM (inactive). Besides, the GI50 in the test on NCI-H460 is > 100 µM (inactive); in the test with PC-3 it was > 100 µM (inactive); with SW-620, > 100 µM (inactive); in the test with U-251, 32 µM (inactive); in the test with Malme-3M, 7.23 µM (inactive); with UO-31, > 100 µM (inactive). Moreover, the GI50 in the test with OVCAR-5 was > 100 µM (inactive); in the test with COLO 205, > 100 µM (inactive); in the test on NCI-H226 it was 30.3 µM (inactive); in the test with HL-60 it was > 100 µM (inactive); with SN12C it was > 100 µM (inactive); in the test with SF-295 it was 35.5 µM (inactive). The GI50 in the test with HCT-116 is 96.2 µM (inactive); in the test with NCI-H522 it was 17 µM (inactive).

As to `COc1cc(-c2[o+]c3cc(O)cc(OC4OC(CO)C(O)C(O)C4O)c3cc2OC2OC(CO)C(O)C(O)C2O)cc(OC)c1O` (centres undefined), the GI50 in the test on SK-MEL-2, with SNB-19, in the test on SF-539, with MCF7, in the test with UACC-257 and in the test with K562 was > 100 µM (inactive) throughout. The GI50 in the test with NCI-H460, in the test on PC-3, in the test with SW-620, in the test with U-251, in the test with Malme-3M and in the test with UO-31 was > 100 µM (inactive) each time. Further, the GI50 in the test on OVCAR-5 was > 100 µM (inactive); in the test with COLO 205, > 100 µM (inactive); in the test on NCI-H226, > 100 µM (inactive); with HL-60, 21.1 µM (inactive); in the test on SN12C, > 100 µM (inactive); with SF-295, > 100 µM (inactive). The GI50 in the test with HCT-116 and in the test on NCI-H522 was > 100 µM (inactive) each time.

For `CCCCOCCOC1=CC(=O)c2c(O)ccc(O)c2C1=O`, the GI50 in the test on SK-MEL-2 was 1.69 µM (inactive); in the test with SNB-19, 1.75 µM (inactive); in the test with SF-539, 1.58 µM (inactive); in the test on MCF7, 1.31 µM (inactive); in the test with UACC-257, 1.03 µM (active); in the test on K562, 2 µM (inactive). Besides, the GI50 with NCI-H460 was 1.82 µM (inactive); in the test with PC-3, 2.59 µM (inactive); with SW-620, 1.45 µM (inactive); with U-251, 1.7 µM (inactive); in the test on Malme-3M it was 0.24 µM (active); in the test on UO-31, 1.64 µM (inactive). Besides, the GI50 in the test on COLO 205 was 1.14 µM (inactive); in the test on NCI-H226 it was 1.72 µM (inactive); in the test with HL-60, 0.506 µM (active); in the test on SN12C, 1.66 µM (inactive); in the test with SF-295, 1.66 µM (inactive); in the test on HCT-116, 1.49 µM (inactive). Besides, the GI50 in the test on NCI-H522 is 1.58 µM (inactive).

Regarding `Cc1ncc(C/N=C/c2ccc(Cl)cc2)c(N)n1`, the GI50 in the test with SK-MEL-2, in the test on SNB-19, with SF-539, in the test on MCF7, with UACC-257 and in the test on K562 was > 100 µM (inactive) throughout. For the same molecule, the GI50 in the test on NCI-H460, in the test on PC-3, in the test with SW-620, with U-251, in the test with Malme-3M and in the test with UO-31 was > 100 µM (inactive) each time. Further, the GI50 with OVCAR-5, with COLO 205, in the test on NCI-H226, in the test on HL-60, in the test on SN12C and with SF-295 was > 100 µM (inactive) in each case. Moreover, the GI50 in the test on HCT-116 and with NCI-H522 was > 100 µM (inactive) each time.

`O=[N+]([O-])c1ccc(C(Nc2ccccc2)P(c2ccccc2)c2ccccc2)cc1` (centres undefined): the GI50 was > 100 µM (inactive) in the test on SK-MEL-2; > 100 µM (inactive) in the test with SNB-19; > 100 µM (inactive) in the test on SF-539; > 100 µM (inactive) in the test on MCF7; > 100 µM (inactive) in the test with UACC-257; 22.5 µM (inactive) with K562. The GI50 in the test on NCI-H460, in the test on PC-3, in the test with SW-620, in the test on U-251, with Malme-3M and in the test with UO-31 was > 100 µM (inactive) each time. Besides, the GI50 was > 100 µM (inactive) in the test with OVCAR-5; > 100 µM (inactive) with COLO 205; > 100 µM (inactive) with NCI-H226; > 100 µM (inactive) with HL-60; > 100 µM (inactive) with SN12C; 44.7 µM (inactive) in the test with SF-295. Also, the figures for the GI50 with HCT-116 and in the test on NCI-H522 were 8.81 µM (inactive) and > 100 µM (inactive), respectively.

As for `CC(=O)O[C@H]1C(=O)[C@@]2(C)[C@H]([C@H](OC(=O)c3ccccc3)[C@]3(O)C[C@H](OC(=O)[C@H](O)[C@@H](NC(=O)CC(C)C)c4ccccc4)C(C)=C1C3(C)C)[C@]1(OC(C)=O)CO[C@@H]1C[C@@H]2O`, the GI50 in the test on SK-MEL-2 is 0.00239 µM (active); in the test with SNB-19 it was 0.607 µM (active); with SF-539, 0.00204 µM (active); with MCF7 it was < 0.001 µM (active); in the test with UACC-257, 0.015 µM (active); in the test with K562, 0.00179 µM (active). In addition, the GI50 in the test on NCI-H460 is 0.00334 µM (active); with PC-3 it was 0.00281 µM (active); with SW-620, 0.00289 µM (active); with U-251, 0.00879 µM (active); in the test on Malme-3M, 0.0135 µM (active); in the test on UO-31, 2.48 µM (inactive). Further, the GI50 with OVCAR-5 was 0.226 µM (active); with COLO 205, 0.00178 µM (active); in the test on NCI-H226 it was 0.038 µM (active); in the test on HL-60 it was 0.00111 µM (active); in the test with SN12C it was 0.00524 µM (active); in the test with SF-295 it was 0.0445 µM (active). The results for the GI50 in the test with HCT-116 and in the test on NCI-H522 were 0.00167 µM (active) and 0.00247 µM (active), respectively.
